Test results as given in US20160361291A1, “METHODS FOR INCREASING SKELETAL MUSCLE PROTEIN SYNTHESIS USING GREEN TEA EXTRACT” (ABBOTT LABORATORIES, priority 2013, published 2016).

What was measured:
[1] = system: C2C12 muscle myotubes; assay: Muscle protein synthesis in C2C12 myotubes under TNF-α stress (radiolabeled phenylalanine incorporation); assay type: cell-based, mouse; conditions: for protein synthesis as compared to the control: synthesis measured over following 4 hours
Protocol: The role of EGCg, in the form of […]® brand green tea extract that contains about 95% EGCg (available from DSM of the Netherlands), in stimulating muscle protein synthesis was evaluated in an in vitro cell-based assay using mouse C2C12 muscle myotubes. This assay measured the incorporation of radiolabeled phenylalanine into myotubes in response to various stimuli. C2C12 myoblasts passaged in FCS DMEM (Fetal Calf Serum Dulbecco's Modified Eagle's Medium) were differentiated to myotubes in HS DMEM (Horse Serum Dulbecco's Modified Eagle's Medium). The myotubes were labeled for 24 hours with L-[2,6-3H] phenylalanine prior to compound experimentation. They were then incubated with TNF-α (50 ng/ml) for 2 hours in the absence, or presence of 10 μM or 50 μM of EGCg, and protein synthesis was measured over the following 4 hours.

[2] = system: mTOR; assay: mTOR activation in skeletal muscle of aged rats, 8-week diet study; assay type: in vivo, Sprague Dawley rats; conditions: 200 mg/kg body weight EGCg per day in AIN-93M diet, 8 weeks, rats aged 20 months; p<0.05
Protocol: (§1) Each of 12 aged Sprague Dawley rats (SD) rats (20 months) were chronically fed the following diets ad libitum for 8 weeks to evaluate the effects on the progression of sarcopenia in the rats:
(§2) Control diet: AIN-93M (AIN-93M diets are well known balanced diets for rodents); and
(§3) Test diet: AIN-93M+200 mg/kg body weight of EGCg.
(§4) The AIN-93M diet was supplemented with EGCG (in the form of TEAVIGO® brand green tea extract) at a concentration of 5 gm/kg diet to deliver a dose of 200 mg/kg body weight of EGCg per day to the SD rat (approximate body weight 500 gm, approximate food intake=20 gm/d) in the test diet.

[3] = system: gastrocnemius muscle; assay: Gastrocnemius muscle wet weight of aged rats, 8-week diet study; assay type: in vivo, Sprague Dawley rats; conditions: 200 mg/kg body weight EGCg per day in diet, 8 weeks, rats aged 20 months
Protocol: as §1, §2, §3, §4
(§5) This increased activation was associated with increases in gastrocnemius muscle wet weight and muscle fiber cross sectional area, as shown respectively in FIGS. 3 and 4. Excised gastrocnemius muscles were weighed at the end of the 8 weeks. […] With respect to the muscle fiber cross sectional area, 8-micron muscle sections from the SD rats were dissected, mounted, and stained using hematoxylin & eosin at the end of the 8 week period. Approximately 400 fibers were measured per sample. The results are shown in FIG. 4, in which the SD rats fed the test diet (EGCg treatment) have higher cross sectional areas as compared to that of the SD rats fed the control diet (p=0.06).

[4] = system: muscle fiber; assay: Muscle fiber cross sectional area of aged rats, 8-week diet study; assay type: in vivo, Sprague Dawley rats; conditions: 200 mg/kg body weight EGCg per day in diet, 8 weeks; p=0.06
Protocol: as §1, §2, §3, §4, §5

[5] = system: 19S regulatory particle ubiquitin proteasome subunits; assay: Western blot of 19S regulatory particle ubiquitin proteasome subunits, 8-week diet study; assay type: in vivo, Sprague Dawley rats; conditions: 200 mg/kg body weight EGCg per day in diet, 8 weeks
Protocol: as §1, §2, §3, §4
(§6) Conversely, markers of muscle atrophy such as the 19S regulatory and 20S core particle ubiquitin proteasome subunits, MuRF1, and MAFbx were lower at the end of the 8 weeks in those SD rats fed the test diet (EGCg treatment) as compared to those fed the control diet. […] The components of the Ubiquitin Proteasome Pathway (UPP) as shown in FIGS. 5-8 were measured by western blotting in rats treated with either the test (EGCg treatment) or the control diets.

[6] = system: 20S core particle ubiquitin proteasome subunits; assay: Western blot of 20S core particle ubiquitin proteasome subunits, 8-week diet study; assay type: in vivo, Sprague Dawley rats; conditions: 200 mg/kg body weight EGCg per day in diet, 8 weeks
Protocol: as §1, §2, §3, §4, §6

[7] = system: muscle ring finger protein 1 (MuRF1); assay: Western blot of MuRF1, 8-week diet study; assay type: in vivo, Sprague Dawley rats; conditions: 200 mg/kg body weight EGCg per day in diet, 8 weeks
Protocol: as §1, §2, §3, §4, §6

[8] = system: muscle atrophy f-box (MAFbx); assay: Western blot of MAFbx, 8-week diet study; assay type: in vivo, Sprague Dawley rats; conditions: 200 mg/kg body weight EGCg per day in diet, 8 weeks
Protocol: as §1, §2, §3, §4, §6

| Compound | protein synthesis as compared to the control ([1]; 10 μM EGCg plus TNF-α (50 ng/ml, 2 hours), p<0.05) [%] | protein synthesis as compared to the control ([1]; 50 μM EGCg plus TNF-α (50 ng/ml, 2 hours), p<0.01) [%] | increase in intramuscular phosphorylated mTOR expression (mTOR activation) vs control diet [2] [%] | greater muscle mass in excised gastrocnemius muscle vs control diet [3] | muscle fiber cross sectional area vs control diet [4] | 19S regulatory particle ubiquitin proteasome subunit expression vs control diet [5] | 20S core particle ubiquitin proteasome subunit expression vs control diet [6] | MuRF1 expression vs control diet [7] | MAFbx expression vs control diet [8] | drop in protein synthesis as compared to the control ([1]; TNF-α alone, 50 ng/ml, 2 hours, p<0.05) [%] |
| --- | --- | --- | --- | --- | --- | --- | --- | --- | --- | --- |
| O=C(O[C@@H]1Cc2c(O)cc(O)cc2O[C@@H]1c1cc(O)c(O)c(O)c1)c1cc(O)c(O)c(O)c1 [EGCg, epigallocatechin gallate] | 104 | 109 | 53 | approximately 5% | higher | lower | lower | lower | lower | – |
| tumor necrosis factor alpha [TNFα, reference compound] | – | – | – | – | – | – | – | – | – | 16 |
